In patent publication US5436254A, “Carbostyril derivatives” (Otsuka Pharmaceutical Company, Ltd., priority 1989, dated 1995):

Biological target: V1 receptor (Rattus norvegicus, UniProt P30560)
Experiment: biochemical
Type: binding
Conditions: not given

V1 receptor, sequence (P30560 whole entry): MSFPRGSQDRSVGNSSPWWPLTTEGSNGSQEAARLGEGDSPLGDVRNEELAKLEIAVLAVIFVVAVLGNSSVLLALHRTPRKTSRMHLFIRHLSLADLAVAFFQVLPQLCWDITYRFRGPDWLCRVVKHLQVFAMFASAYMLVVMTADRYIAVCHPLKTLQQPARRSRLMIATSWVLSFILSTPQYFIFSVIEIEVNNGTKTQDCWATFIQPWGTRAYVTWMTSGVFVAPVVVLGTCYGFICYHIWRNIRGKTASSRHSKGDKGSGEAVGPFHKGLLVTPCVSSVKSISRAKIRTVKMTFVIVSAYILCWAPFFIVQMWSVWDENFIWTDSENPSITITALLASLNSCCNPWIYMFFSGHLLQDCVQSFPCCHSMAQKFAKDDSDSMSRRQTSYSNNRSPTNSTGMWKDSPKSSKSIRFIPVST

| Compound | IC50 |
| --- | --- |
| CN(CCC#N)CCCCCOc1ccc(C(=O)N2CCC(N3C(=O)CCc4ccccc43)CC2)cc1 [Example 247, 1-{1-(4-[5-(N-(2-Cyanoethyl)-N-methylamino)pentyloxy]benzoyl)-4-piperidinyl}-3,4-dihydrocarbostyril] | 0.17 µM |
| CS(=O)(=O)NCC(=O)NCCCCCOc1ccc(C(=O)N2CCC(N3C(=O)CCc4ccccc43)CC2)cc1 [Example 310, 1-{1-(4-[5-(2-Methanesulfonylaminoacetylamino)pentyloxy]benzoyl)-4-piperidinyl]-3,4-dihydrocarbostyril] | 0.16 µM |
| O=C(CNCc1ccccc1)NCCCCCOc1ccc(C(=O)N2CCC(N3C(=O)CCc4ccccc43)CC2)cc1 [Example 256, 1-{1-(4-[5-(2-Benzylaminoacetylamino)pentyloxy]benzoyl)-4-piperidinyl}-3,4-dihydrocarbostyril] | 0.19 µM |
| COc1cc(OCCCCC(=O)N2CCSCC2)ccc1C(=O)N1CCC(N2C(=O)CCc3ccccc32)CC1 [Example 293, 1-{1-[2-Methoxy-4-(4-thiomorpholinocarbonylbutyloxy)benzoyl]-4-piperidinyl}-3,4-dihydrocarbostyril] | 0.22 µM |
| CCCNc1cc(OC)ccc1C(=O)N1CCC(N2C(=O)CCc3ccccc32)CC1 [Example 57, 1-[1-(2-Propylamino-4-methoxybenzoyl)-4-piperidinyl]-3,4-dihydrocarbostyril] | 0.27 µM |
| NC(=O)CNC(=O)CCCOc1ccc(C(=O)N2CCC(N3C(=O)CCc4ccccc43)CC2)cc1 [Example 9, 1-{1-[4-(3-Carbamoylmethylaminocarbonylpropoxy)benzoyl]-4-piperidinyl}-3,4-dihydrocarbostyril] | 0.35 µM |
| O=C(c1ccc(OCCCN2CCN(c3ccccc3)CC2)cc1)N1CCC(N2C(=O)CCc3ccccc32)CC1 [Example 93, 1-[1-{4-[3-(4-Phenyl-1-piperazinyl)propoxy]benzoyl)-4-piperidinyl]-3,4-dihydrocarbostyril] | 0.64 µM |
| CNc1ccc(C(=O)NCCCCOc2ccc(C(=O)N3CCC(N4C(=O)CCc5ccccc54)CC3)cc2)cc1 [Example 126, 1-[1-{4-[(4-Methylaminobenzoyl)aminobutoxy]-benzoyl}-4-piperidinyl]-3,4-dihydrocarbostyril] | 0.36 µM |
| CS(=O)(=O)Oc1ccc(C(=O)N2CCC(N3C(=O)CCc4ccccc43)CC2)cc1 [Example 100, 1-[1-(4-Methylsulfonyloxybenzoyl)-4-piperidinyl]-3,4-dihydrocarbostyril] | 0.9 µM |
| CCN(CC)CC(O)CCCCOc1ccc(C(=O)N2CCC(N3C(=O)CCc4ccccc43)CC2)cc1 (stereo not shown) [Example 144, 1-{1-[4-(6-Diethylamino-5-hydroxyhexyloxy)benzoyl]-4-piperidinyl}-3,4-dihydrocarbostyril] | 0.022 µM |
| COc1cc(SC)ccc1C(=O)N1CCC(N2C(=O)CCc3ccc(F)cc32)CC1 [Example 80, 7-Fluoro-1-[1-(2-methoxy-4-methylthiobenzoyl)-4-piperidinyl]-3,4-dihydrocarbostyril] | 0.08 µM |
| COC(=O)N1CCN(CCCCOc2ccc(C(=O)N3CCC(N4C(=O)CCc5ccccc54)CC3)cc2)CC1 [Example 160, 1-{1-[4-[4-(4-Methoxycarbonyl-1-piperazinyl)butoxy]benzoyl]-4-piperidinyl}-3,4-dihydrocarbostyril] | 0.22 µM |
| O=C(c1ccc(OCCCCN2CCN(Cc3ccccc3)CC2)cc1)N1CCC(N2C(=O)CCc3ccccc32)CC1 [Example 156, 1-{1-[4-[(4-Benzyl-1-piperazinyl)butoxy]benzoyl]-4-piperidinyl}-3,4-dihydrocarbostyril] | 0.18 µM |
| CN(CCCCCCOc1ccc(C(=O)N2CCC(N3C(=O)CCc4ccccc43)CC2)cc1)CCc1ccccn1 [Example 266, 1-{1-(4-[6-(N-(2-(2-Pyridyl)ethyl)-N-methylamino)hexyloxy]benzoyl)-4-piperidinyl}-3,4-dihydrocarbostyril] | 0.035 µM |
| CSCC[C@H](NC(=O)CCCCCOc1ccc(C(=O)N2CCC(N3C(=O)CCc4ccccc43)CC2)cc1)C(N)=O [Example 153, 1-{1-[4-(5-[1-(S)-Carbamoyl-3-(methylthio)]propylaminocarbonylpentyloxy)benzoyl]-4-piperidinyl}-3,4-dihydrocarbostyril] | 0.084 µM |
| CC(C)CCNCCCOc1ccc(C(=O)N2CCC(N3C(=O)CCc4ccccc43)CC2)cc1 [Example 167, 1-{1-[4-(3-Isopentylaminopropoxy)benzoyl]-4-piperidinyl}-3,4-dihydrocarbostyril] | 0.28 µM |
| O=C1CCc2ccccc2N1C1CCN(C(=O)C23CC4CC(CC(C4)C2)C3)CC1 [Example 83, 1-(1-Tricyclo[3.3.1.1^3,7]decanylcarbonyl-4-piperidinyl)-3,4-dihydrocarbostyril] | 0.5 µM |
| CC(=O)OCCCCOc1ccc(C(=O)N2CCC(N3C(=O)CCc4ccccc43)CC2)cc1 [Example 37, 1-{1-[4-(4-Acetoxybutoxy)benzoyl]-4-piperidinyl}-3,4-dihydrocarbostyril] | 0.36 µM |

| Compound | IC50 |
| --- | --- |
| NC(=O)OCCCOc1ccc(C(=O)N2CCC(N3C(=O)CCc4ccccc43)CC2)cc1 [Example 35, 1-{1-[4-(3-Carbamoyloxypropoxy)benzoyl]-4-piperidinyl}-3,4-dihydrocarbostyril] | 0.15 µM |
| O=C(c1ccc(OC2C=CCCC2)cc1)N1CCC(N2C(=O)CCc3ccccc32)CC1 (stereo not shown) [Example 98, 1-{1-[4-(2-Cyclohexenyloxy)benzoyl]-4-piperidinyl}-3,4-dihydrocarbostyril] | 0.77 µM |
| CCN(CC)CC(O)COCCCOc1ccc(C(=O)N2CCC(N3C(=O)CCc4ccccc43)CC2)cc1 (stereo not shown) [Example 192, 1-{1-[4-(3-(2-Hydroxy-3-diethylaminopropoxy)propoxy)benzoyl]-4-piperidinyl}-3,4-dihydrocarbostyril] | 0.061 µM |
| CCOC(=O)CNC(=O)CCCCCOc1ccc(C(=O)N2CCC(N3C(=O)CCc4ccccc43)CC2)cc1 [Example 13, 1-{1-[4-(5-Ethoxycarbonylmethylaminocarbonylpentyloxy)benzoyl]-4-piperidinyl}-3,4-dihydrocarbostyril] | 0.28 µM |
| O=C(c1ccc(OCCCCC(O)CN2CCC(Cc3ccccc3)CC2)cc1)N1CCC(N2C(=O)CCc3ccccc32)CC1 (stereo not shown) [Example 304, 1-{1-(4-[5-Hydroxy-6-(4-benzyl-1-piperidinyl)hexyloxy]benzoyl]-piperidinyl}-3,4-dihydrocarbostyril] | 0.037 µM |
| COc1ccc(C(=O)N2CCC(N3C(=O)CCc4ccccc43)CC2)cc1[N+](=O)[O-] [Example 119, 1-[1-(3-Nitro-4-methoxybenzoyl)-4-piperidinyl]-3,4-dihydrocarbostyril] | 1.4 µM |
| O=C(c1ccc(OCCCCC(O)CN2CCCC2)cc1)N1CCC(N2C(=O)CCc3ccccc32)CC1 (stereo not shown) [Example 202, 1-{1-[4-(5-Hydroxy-6-(1-pyrrolidinyl)hexyloxy)benzoyl]-4-piperidinyl}-3,4-dihydrocarbostyril] | 0.027 µM |
| CCN(CC)CCCCCCCOc1ccc(C(=O)N2CCC(N3C(=O)CCc4ccccc43)CC2)cc1 [Example 268, 1-{1-(4-[7-(Diethylamino)heptyloxy]benzoyl)-4-piperidinyl}-3,4-dihydrocarbostyril] | 0.027 µM |
| CN(CCc1ccccn1)CC(O)CCCCOc1ccc(C(=O)N2CCC(N3C(=O)CCc4ccccc43)CC2)cc1 (stereo not shown) [Example 300, 1-{1-(4-[5-Hydroxy-6-(N-methyl-N-(2-(2-pyridyl)ethyl)amino)hexyloxy]benzoyl]-4-piperidinyl}-3,4-dihydrocarbostyril] | 0.034 µM |
| CCOC(=O)CNC(=O)CCCOc1ccc(C(=O)N2CCC(N3C(=O)CCc4ccccc43)CC2)cc1 [Example 8, 1-{1-[4-(3-Ethoxycarbonylmethylaminocarbonylpropoxy)benzoyl]-4-piperidinyl}-3,4-dihydrocarbostyril] | 0.3 µM |
| O=C(c1ccc(OCCCCCN2CCCC(O)C2)cc1)N1CCC(N2C(=O)CCc3ccccc32)CC1 (stereo not shown) [Example 240, 1-{1-(4-[5-(3-Hydroxy-1-piperidinyl)pentyloxy]benzoyl)-4-piperidinyl}-3,4-dihydrocarbostyril] | 0.048 µM |
| CCN(CC)CC(CCCCOc1ccc(C(=O)N2CCC(N3C(=O)CCc4ccccc43)CC2)cc1)OC(C)=O (stereo not shown) [Example 305, 1-{1-[4-(5-Acetoxy-6-diethylaminohexyloxy)benzoyl]-4-piperidinyl)-3,4-dihydrocarbostyril] | 0.065 µM |
| CS(=O)(=O)N1CCN(CCCCOc2ccc(C(=O)N3CCC(N4C(=O)CCc5ccccc54)CC3)cc2)CC1 [Example 159, 1-{1-[4-[4-(4-Methylsulfonyl-1-piperazinyl)butoxy]benzoyl]-4-piperidinyl}-3,4-dihydrocarbostyril] | 0.098 µM |
| CCOc1ccc(C(=O)N2CCC(N3C(=O)CCc4c(F)cc(F)cc43)CC2)c(OC)c1 [Example 139, 5,7-Difluoro-1-[1-(2-methoxy-4-ethoxybenzoyl)-4-piperidinyl]-3,4-dihydrocarbostyril] | 0.051 µM |
| COc1ccc(CNCC(O)CCCCOc2ccc(C(=O)N3CCC(N4C(=O)CCc5ccccc54)CC3)cc2)cc1OC (stereo not shown) [Example 299, 1-{1-(4-[5-Hydroxy-6-(3,4-dimethoxybenzylamino)hexyloxy]benzoyl)-4-piperidinyl}-3,4-dihydrocarbostyril.oxalate] | 0.065 µM |
| CCN(CC)CC(O)CCCCOc1ccc(C(=O)N2CCC(N3C(=O)CCc4c(F)cc(F)cc43)CC2)c(OC)c1 (stereo not shown) [Example 201, 5,7-Difluoro-1-(1-[2-methoxy-4-(5-hydroxy-6-diethylaminohexyloxy)benzoyl]-4-piperidinyl}-3,4-dihydrocarbostyril] | 0.008 µM |
| CC(C)[C@@H](N)C(=O)NCCCOc1ccc(C(=O)N2CCC(N3C(=O)CCc4ccccc43)CC2)cc1 [Example 225, 1-[1-{4-(3-(R)-Valylaminopropoxy]benzoyl]-4-piperidinyl]-3,4-dihydrocarbostyril] | 0.099 µM |
| O=C(CCCNC(=O)OCc1ccccc1)NCCCCCOc1ccc(C(=O)N2CCC(N3C(=O)CCc4ccccc43)CC2)cc1 [Example 250, 1-{1-(4-[5-(4-Benzyloxycarbonylaminobutyrylamino)pentyloxy]benzoyl)-4-piperidinyl}-3,4-dihydrocarbostyril] | 0.32 µM |

Same assay, conditions: [H]3-Arg-vasopressin 2×10^-10 M, rat liver plasma membrane, 37° C., 10 minutes, pH 8.0

| Compound | IC50 |
| --- | --- |
| O=C(c1ccc(OCCCCCn2ccnc2)cc1)N1CCC(N2C(=O)CCc3ccccc32)CC1 [Example 236] | 0.26 µM |
